Patent US20160362478A1, “CD4-MIMETIC SMALL MOLECULES SENSITIZE HUMAN IMMUNODEFICIENCY VIRUS TO VACCINE-ELICITED ANTIBODIES” (priority 2014, published 2016)

Assays:
[1] = target: HIV-1 JR-FL envelope glycoproteins (Env) (HIV-1 JR-FL); assay: cell-based or functional assay
[2] = target: HIV-1 YU2 envelope glycoproteins (Env) (HIV-1 YU2) (UniProt P35961); assay: cell-based or functional assay
HIV-1 JR-FL [3] = assay: Infection of Cf2Th-CD4/CCR5 cells by single-round luciferase virus with HIV-1 JR-FL Env; assay type: cell-based; settings: for IC50: Human immunodeficiency virus 1, Cf2Th-CD4/CCR5, read-out: IC50, inhibition of HIV-1 JR-FL infection; for inhibition of HIV-1 JR-FL virus relative to parental NBD-556: cells expressing CD4 and CCR5
Experimental: (§1) Recombinant luciferase viruses: 293T human embryonic kidney cells were co-transfected with plasmids expressing the pCMVΔP1Δenv HIV-1 Gag-Pol packaging construct, the R5 YU2 envelope glycoproteins, or the envelope glycoprotein of the control amphotropic murine leukemia virus (A-MLV), and the firefly luciferase-expressing vector at a DNA ratio of 1:1:3 μg using the Effectene transfection reagent (Qiagen). Co-transfection produced single-round, replication-defective viruses. The virus-containing supernatants were harvested 36-40 h after transfection, spun, aliquoted, and frozen at −80° C. until further use. The reverse transcriptase (RT) activities of all viruses were measured as described in Rho, H. M., et al. Virology 1981, 112, 355-360.
(§2) Infection by single-round luciferase viruses. Cf2Th-CCR5-CD4 target cells were seeded at a density of 6×10^3 cells/well in 96-well luminometer-compatible tissue culture plates (PerkinElmer) 24 h before infection. […] In the case of sensitization assays, a constant concentration of compounds was incubated with virus for 30 min at 37° C.; then, 17b or other antibodies (0-100 μg/mL) were added to the virus/compound mixture and incubated for an additional 30 min at 37° C. The mixtures were then added to the target cells and incubated for 48 h at 37° C.; after this time, the medium was removed from each well, and the cells were lysed by the addition of 30 μL passive lysis buffer (Promega) and three freeze-thaw cycles. An EG&G Berthold Microplate Luminometer LB 96V was used to measure the luciferase activity of each well after the addition of 100 μL of luciferin buffer (15 mM MgSO4, 15 mM KPO4, pH 7.8, 1 mM ATP, and 1 mM dithiothreitol) and 50 μL of 1 mM Firefly D-Luciferin Free Acid 99% (Prolume).
The ability of selected CD4-mimetic compounds to inhibit HIV-1 entry was examined. […] Recombinant HIV-1 expressing the firefly luciferase gene was pseudotyped with different envelope glycoproteins, either HIV-1 JR-FL Env or, as a control, the amphotropic murine leukemia virus (A-MLV) envelope glycoproteins. The recombinant viruses were incubated with cells expressing CD4 and CCR5 in the presence of different concentrations of the compounds.

HIV-1 YU2 [4] = assay: Infection of Cf2Th-CD4/CCR5 cells by single-round luciferase virus with HIV-1 YU2 Env; assay type: cell-based; settings: Human immunodeficiency virus 1, Cf2Th-CD4/CCR5, read-out: IC50, inhibition of HIV-1 YU2 infection
Experimental: as §1
(§3) Infection by single-round luciferase viruses. Cf2Th-CCR5-CD4 target cells were seeded at a density of 6×10^3 cells/well in 96-well luminometer-compatible tissue culture plates (PerkinElmer) 24 h before infection. […] In the case of sensitization assays, a constant concentration of compounds was incubated with virus for 30 min at 37° C.; then, 17b or other antibodies (0-100 μg/mL) were added to the virus/compound mixture and incubated for an additional 30 min at 37° C. […]

A-MLV = assay: Infection by control virus pseudotyped with A-MLV envelope glycoproteins; assay type: cell-based, amphotropic murine leukemia virus; settings: at 100 μM
Experimental: as §1, §3

HIV-1 = assay: Inhibition of HIV-1 infection (overview statement); assay type: cell-based; settings: Human immunodeficiency virus 1, read-out: IC50, inhibition of HIV-1 infection
[5] = target: wild-type HIV-1 YU2 gp120 glycoprotein (Human immunodeficiency virus type 1 group M subtype B, UniProt P35961); assay: Isothermal titration calorimetry, binding to gp120; settings: ITC, 25° C.
Experimental: Isothermal Titration Calorimetry. Thermodynamic parameters for the binding of the different inhibitors to gp120 were obtained by isothermal titration calorimetry (ITC) using a VP-ITC microcalorimeter from MicroCal/GE Healthcare (Northampton, Mass., USA). The titrations were performed at 25° C. by injecting 10 μL aliquots of inhibitor solution into the calorimetric cell (volume ˜1.4 mL) containing gp120 at a concentration of 2 μM. […] In all titration experiments, gp120 and the different inhibitors were equilibrated with PBS, pH 7.4, with 2% DMSO. The heat evolved upon each injection of inhibitor was obtained by integration of the calorimetric signal. The heat associated with inhibitor binding to gp120 was obtained by subtracting the heat of dilution from the heat of reaction. The enthalpy change (ΔH) and association constant (Ka=[…]) were obtained by nonlinear regression of the data.
The thermodynamics of the binding of each compound to the wild-type HIV-1 YU2 gp120 glycoprotein was analyzed by isothermal titration calorimetry.

HIV-1 JR-FL [6] = assay: Cold inactivation of recombinant virus on ice; assay type: cell-based; settings: compound 50 μM
Experimental: Cold Inactivation. […] Cf2Th-CCR5-CD4 target cells were seeded at a density of […] cells/well in a 96-well luminometer-compatible tissue-culture plate (PerkinElmer) 24 h before infection. The mixtures were then added to target cells and incubated for 48 h at 37° C.; after this time, the medium was removed from each well, and the cells were lysed by the addition of 30 μL passive lysis buffer (Promega) and three freeze-thaw cycles. An EG&G Berthold Microplate Luminometer LB 96V was used to measure the luciferase activity of each well after the addition of 100 μL of luciferin buffer (15 mM MgSO4, 15 mM KPO4, pH 7.8, 1 mM ATP, and 1 mM dithiothreitol) and 50 μL of 1 mM Firefly D-Luciferin Free Acid 99% (Prolume).

HIV-1 JR-FL [7] = assay: Sensitization assay: antibody neutralization of HIV-1 JR-FL with CD4-mimetic compound; assay type: cell-based; settings: for sensitization of HIV-1 JR-FL to neutralization by 17b and 39F antibodies: sub-neutralizing compound concentrations
Experimental: as §2
The ability of (+)-DMJ-I-228 and (+)-DMJ-II-121 to each sensitize HIV-1 to neutralization by antibodies was examined using the single-round infection of Cf2Th-CD4/CCR5 cells by recombinant HIV-1 encoding firefly luciferase. The recombinant viruses were pseudotyped with the HIV-1 Envs derived from the primary R5 HIV-1 JR-FL and YU2 isolates. Recombinant HIV-1 pseudotyped with the amphotropic murine leukemia virus (A-MLV) Env was used as a control for specificity. HIV-L neutralization was examined in the presence of sub-neutralizing concentrations of the CD4-mimetic compounds and different concentrations of monoclonal antibodies. […] The 17b antibody recognizes a well-conserved CD4i epitope on the HIV-1 gp120 core that is not formed or exposed in the unliganded Env of primary HIV-1 strains. The 39F antibody recognizes a conformation-dependent epitope in the gp120 V3 region of primary R5 HIV-1. […] and (+)-DMJ-II-121 each render primary HIV-1 isolates sensitive to neutralization by monoclonal antibodies directed against CD4i and V3 epitopes on the gp120 Env.

HIV-1 YU2 [8] = assay: Sensitization assay: antibody neutralization of HIV-1 YU2 with CD4-mimetic compound; assay type: cell-based; settings: sub-neutralizing compound concentrations
Experimental: as §2
The ability of (+)-DMJ-I-228 and (+)-DMJ-II-121 to each sensitize HIV-1 to neutralization by antibodies was examined using the single-round infection of Cf2Th-CD4/CCR5 cells by recombinant HIV-1 encoding firefly luciferase. The recombinant viruses were pseudotyped with the HIV-1 Envs derived from the primary R5 HIV-1 JR-FL and YU2 isolates. […]

[9] = system: primary CD4 T cells infected with transmitted/founder (T/F) viruses and their 6-month counterparts; assay: Recognition of primary CD4 T cells infected with primary HIV-1 by HIV-1+ sera; assay type: cell-based, human; settings: data not shown
HIV-1 JR-FL [10] = assay: Sensitization of HIV-1 JR-FL to neutralization by rabbit antisera elicited by gp120 cores; assay type: cell-based
Experimental: as §2
Animal inoculations and analysis of antisera. Approximately 12-week-old female New Zealand White rabbits were housed at the AAALAC-accredited facilities at Bioqual (Rockville, Md.) under specific pathogen-free conditions. At 4-week intervals, rabbits were inoculated intramuscularly with […] of affinity-purified protein formulated in GlaxoSmithKline Adjuvant System AS01B by splitting the protein-adjuvant mix in the two hind legs. Serum was prepared, heat inactivated, and assessed for anti-gp120 ELISA titers and the presence neutralizing antibodies.
(+)-DMJ-I-228 and (+)-DMJ-II-121 were examined to determine if they could sensitize HIV-1 to neutralization by antisera elicited by an Env immunogen. […] These stabilized gp120 cores were derived from the laboratory-adapted HIV-1 HXBc2 strain and lack the V1, V2, and V3 variable regions. […]

[11] = system: HIV-1 transmitted/founder viruses; assay: Inhibition and 17b sensitization of transmitted/founder viruses; assay type: cell-based
Experimental: as §2
The ability of (+)-DMJ-II-121 to sensitize HIV-1 transmitted/founder viruses to neutralization by the 17b antibody (FIG. 8A) and antisera elicited by the 3CC gp120 core immunogen (FIG. 8B) was examined. In these experiments, the recombinant viruses were pseudotyped with the HIV-1 Envs derived from HIV-1 transmitted/founder viruses. Recombinant HIV-1 pseudotyped with the primary R5 HIV-1 JR-FL and the amphotropic murine leukemia virus (A-MLV) Envs served as positive and negative controls, respectively. HIV-1 neutralization was examined in the presence of sub-neutralizing concentrations of (+)-DMJ-II-121 and different concentrations of the 17b antibody or sera.

[12] = system: HIV-1 transmitted/founder viruses; assay: Sensitization of transmitted/founder viruses to 3CC gp120 core antisera; assay type: cell-based
Experimental: as §2
Animal inoculations and analysis of antisera. Approximately 12-week-old female New Zealand White rabbits were housed at the AAALAC-accredited facilities at Bioqual (Rockville, Md.) under specific pathogen-free conditions. […] Serum was prepared, heat inactivated, and assessed for anti-gp120 ELISA titers and the presence neutralizing antibodies. […]

Row | Compound | neutralization of pseudotyped virus, no CD4-mimetic compound [1] | neutralization of pseudotyped virus, no CD4-mimetic compound [2] | IC50 (HIV-1 JR-FL [3]) | inhibition of HIV-1 JR-FL virus relative to parental NBD-556 (HIV-1 JR-FL [3]) | IC50 (HIV-1 YU2 [4]) | inhibition of A-MLV infection (A-MLV) | IC50 (HIV-1) | ability to bind monomeric gp120 relative to NBD-556 [5] | half-life of HIV-1 JR-FL infectivity on ice in the presence of the compound (HIV-1 JR-FL [6]) | sensitization of HIV-1 JR-FL to neutralization by 17b and 39F antibodies (HIV-1 JR-FL [7]) | sensitization of HIV-1 YU2 to neutralization by 17b and 39F antibodies (HIV-1 YU2 [8]) | other results
1 | 17b antibody | > 100 µg/mL | > 100 µg/mL | – | – | – | – | – | – | – | – | – | IC50, inhibition of HIV-1 JR-FL entry into cells co-expressing CD4 and CCR5, in the presence of 30 µM (+)-DMJ-II-121 [1]: 0.6 µg/mL
2 | 39F antibody | > 100 µg/mL | > 100 µg/mL | – | – | – | – | – | – | – | – | – | –
3 | N=C(N)N[C@H]1Cc2ccccc2[C@@H]1NC(=O)C(=O)Nc1ccc(Cl)c(F)c1 [(+)-DMJ-I-228] | – | – | 86.9 µM | specifically inhibited the HIV-1 JR-FL virus with an improved potency | 46.7 µM | Neither (+)-DMJ-I-228 nor (+)-DMJ-II-121 inhibited A-MLV infection | 22.9 µM | significant improvement in the ability to bind monomeric gp120 | 9.1 h | each sensitized HIV-1 YU2 and JR-FL to neutralization by the 17b and 39F antibodies | each sensitized HIV-1 YU2 and JR-FL to neutralization by the 17b and 39F antibodies | recognition of cells infected with four primary viruses by HIV-1+ sera [9]: significantly enhance recognition
4 | N=C(N)NC[C@H]1Cc2ccccc2[C@@H]1NC(=O)C(=O)Nc1ccc(Cl)c(F)c1 [(+)-DMJ-II-121] | – | – | 27.8 µM | specifically inhibited the HIV-1 JR-FL virus with an improved potency | 3.6 µM | Neither (+)-DMJ-I-228 nor (+)-DMJ-II-121 inhibited A-MLV infection | 2.3 µM | significant improvement in the ability to bind monomeric gp120 | 1.9 h | each sensitized HIV-1 YU2 and JR-FL to neutralization by the 17b and 39F antibodies | each sensitized HIV-1 YU2 and JR-FL to neutralization by the 17b and 39F antibodies | sensitization of HIV-1 JR-FL to neutralization by sera from rabbits immunized with 3CC or 4CC stabilized gp120 cores (HIV-1 JR-FL [10]): sensitized HIV-1 JR-FL to neutralization; sera elicited by non-stabilized V3S core that neutralized HIV-1 JR-FL after incubation with compound (HIV-1 JR-FL [10]): None of the rabbit sera; sera from rabbits immunized with the 2CC gp120 core that neutralized HIV-1 JR-FL only in the presence of compound (HIV-1 JR-FL [10]; five sera): Three of the five sera; number of transmitted/founder viruses sensitive to compound inhibition but not sensitized to 17b neutralization [11]: Three; sensitivity of transmitted/founder virus TA5 to the compound alone ([11]; TA5 virus): did not exhibit sensitivity; number of 17b-resistant transmitted/founder HIV-1 sensitized to neutralization by the 17b antibody ([11]; of ten 17b-resistant viruses, 50 μM compound): six; sensitivity of TD12 and B5 transmitted/founder viruses to 3CC antisera in the presence of compound [12]: increased sensitivity to neutralization by 3CC antisera
5 | CC1(C)CC(NC(=O)C(=O)Nc2ccc(Cl)cc2)CC(C)(C)N1 [NBD-556, reference compound] | – | – | – | – | – | – | – | – | 15.7 h | – | – | effect on neutralization of HIV-1 JR-FL by the 17b antibody (HIV-1 JR-FL [7]): minimally affected; effect on neutralization of HIV-1 JR-FL by the 39F antibody (HIV-1 JR-FL [7]; only at high concentrations): weakly increase
